Laboratory results taken from patent US12612410B2 (CHILDREN'S HOSPITAL MEDICAL CENTER, priority 2020, dated 2026).

Each molecule was assayed against T1, FLT3 ITD, D835V (Homo sapiens, UniProt P36888, D835V, form not given) (assay: DiscoverX KINOMEscan competition binding, FLT3 ITD, D835V).
T1 construct: fused on or other part: DNA tag for qPCR detection (T7 phage fusion or DNA-tagged protein from HEK-293 cells)
T1 sequence (P36888 1-993 D835V): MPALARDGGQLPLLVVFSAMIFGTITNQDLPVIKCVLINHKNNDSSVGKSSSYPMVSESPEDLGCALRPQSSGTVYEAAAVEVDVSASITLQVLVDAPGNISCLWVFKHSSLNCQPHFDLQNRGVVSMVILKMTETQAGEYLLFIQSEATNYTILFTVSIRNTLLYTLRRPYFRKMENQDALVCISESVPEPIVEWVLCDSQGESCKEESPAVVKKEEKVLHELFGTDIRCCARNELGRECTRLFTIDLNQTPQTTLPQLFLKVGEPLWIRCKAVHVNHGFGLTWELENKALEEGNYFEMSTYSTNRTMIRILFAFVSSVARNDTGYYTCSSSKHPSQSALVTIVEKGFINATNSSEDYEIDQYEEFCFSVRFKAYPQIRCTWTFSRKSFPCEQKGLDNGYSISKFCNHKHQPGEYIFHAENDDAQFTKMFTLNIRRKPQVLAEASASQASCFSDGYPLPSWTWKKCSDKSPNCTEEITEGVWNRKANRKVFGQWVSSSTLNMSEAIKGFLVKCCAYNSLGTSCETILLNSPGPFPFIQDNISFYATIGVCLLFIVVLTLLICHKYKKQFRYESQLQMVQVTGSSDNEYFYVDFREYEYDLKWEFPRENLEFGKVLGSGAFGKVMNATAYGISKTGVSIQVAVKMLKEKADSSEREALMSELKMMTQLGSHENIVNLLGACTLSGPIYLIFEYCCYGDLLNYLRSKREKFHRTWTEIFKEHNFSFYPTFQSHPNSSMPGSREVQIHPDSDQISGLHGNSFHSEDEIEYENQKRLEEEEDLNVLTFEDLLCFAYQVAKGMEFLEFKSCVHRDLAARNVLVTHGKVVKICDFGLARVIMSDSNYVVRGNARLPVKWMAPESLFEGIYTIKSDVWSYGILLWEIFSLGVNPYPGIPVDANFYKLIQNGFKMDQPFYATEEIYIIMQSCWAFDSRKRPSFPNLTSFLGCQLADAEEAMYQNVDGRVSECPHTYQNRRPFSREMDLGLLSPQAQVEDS
Source text: Kinase binding data were obtained for various exemplary compounds prepared according to Examples 1-24 using the DiscoverX KINOMVIEscan® active site-directed competition binding site-directed assay protocol described below. […] As a result, the data report thermodynamic interaction affinities (Kd values), rather than IC50 values that are dependent on ATP concentrations. The assay uses a DNA-tagged version of the protein kinase, and an immobilized ligand bound to a solid support. Compounds that directly or indirectly prevent kinase binding to the immobilized ligand reduce the amount of kinase captured on the solid support, which is detected using an ultra-sensitive qPCR method. Affinity constants reported from the assay have been reported to be independent of the immobilized ligand used that is coupled to the solid support (See supplemental information in Fabian, M. A. et. al., (2005) Nat. Biotechnol. 23, 329-336; Wodicka, L. M. et. al., (2010) Chem. Biol. 17, 1241-1249.)
Kinase-tagged T7 phage strains were prepared in an E. coli host derived from the BL21 strain. E. coli were grown to log-phase and infected with T7 phage and incubated with shaking at 32° C. until lysis. The lysates were centrifuged and filtered to remove cell debris. The remaining kinases were produced in HEK-293 cells and subsequently tagged with DNA for qPCR detection. Streptavidin-coated magnetic beads were treated with biotinylated small molecule ligands for 30 minutes at room temperature to generate affinity resins for kinase assays. The liganded beads were blocked with excess biotin and washed with blocking buffer (SeaBlock (Pierce), 1% BSA, 0.05% Tween 20, 1 mM DTT) to remove unbound ligand and to reduce non-specific binding. Binding reactions were assembled by combining kinases, liganded affinity beads, and test compounds in 1× binding buffer (20% SeaBlock, 0.17×PBS, 0.05% Tween 20, 6 mM DTT). Test compounds were prepared as 111× stocks in 100% DMSO. Kds were determined using an 11-point 3-fold compound dilution series with three DMSO control points. All compounds for Kd measurements are distributed by acoustic transfer (non-contact dispensing) in 100% DMSO. The compounds were then diluted directly into the assays such that the final concentration of DMSO was 0.9%. All reactions were performed in polypropylene 384-well plates. Each was a final volume of 0.02 mL. The assay plates were incubated at room temperature with shaking for 1 hour and the affinity beads were washed with wash buffer (1×PBS, 0.05% Tween 20). The beads were then re-suspended in elution buffer (1×PBS, 0.05% Tween 20, 0.5 μM nonbiotinylated affinity ligand) and incubated at room temperature with shaking for 30 minutes. The kinase concentration in the eluates was measured by qPCR.
Binding constants (Kds) were calculated with a standard dose-response curve using the Hill equation. The Hill Slope was set to −1. Curves were fitted using a non-linear least square fit with the Levenberg-Marquardt algorithm.

SMILES | Kd
CC1(c2cn3c(-c4cccc(N[C@H]5CNC[C@@H]5F)n4)cnc3cn2)CC1 [Compound 1, N-((3S,4S)-4-fluoropyrrolidin-3-yl)-6-(6-(1-methylcyclopropyl)imidazo[1,2-a]pyrazin-3-yl)pyridin-2-amine] | 3 pM
CC1(c2cn3c(-c4cccc(N[C@@H]5CCNC5)n4)cnc3cn2)CC1 [Compound 3, (R)-6-(6-(1-methylcyclopropyl)imidazo[1,2-a]pyrazin-3-yl)-N-(pyrrolidin-3-yl)pyridin-2-amine] | 4 pM
CC1(c2cn3c(-c4cccc(N[C@H]5CNCC56CC6)n4)cnc3cn2)CC1 [Compound 5, (R)-N-(6-(6-(1-methylcyclopropyl)imidazo[1,2-a]pyrazin-3-yl)pyridin-2-yl)-5-azaspiro[2.4]heptan-7-amine] | 5 pM
FC(F)(F)C1(c2cn3c(-c4cccc(N[C@@H]5CCNC5)n4)cnc3cn2)CC1 [Compound 10, (R)-N-(pyrrolidin-3-yl)-6-(6-(1-(trifluoromethyl)cyclopropyl)imidazo[1,2-a]pyrazin-3-yl)pyridin-2-amine] | 11 pM
FC(F)c1cn2c(-c3cccc(N[C@H]4CNC[C@@H]4F)n3)cnc2cn1 [Compound 16, 6-(6-(difluoromethyl)imidazo[1,2-a]pyrazin-3-yl)-N-((3S,4S)-4-fluoropyrrolidin-3-yl)pyridin-2-amine] | 6 pM
FC(F)c1cn2c(-c3cccc(N[C@H]4CNCC[C@@H]4F)n3)cnc2cn1 [Compound 25, 6-(6-(difluoromethyl)imidazo[1,2-a]pyrazin-3-yl)-N-((3S,4S)-4-fluoropiperidin-3-yl)pyridin-2-amine] | 9 pM
CC(C)(O)c1cn2c(-c3cccc(N[C@@H]4CCCNC4)n3)cnc2cn1 [Compound 30, (R)-2-(3-(6-(piperidin-3-ylamino)pyridin-2-yl)imidazo[1,2-a]pyrazin-6-yl)propan-2-ol] | 140 pM

Continued, values first:

Kd | SMILES
44 pM | CC(C)(O)c1cn2c(-c3cccc(N[C@H]4CNCC[C@@H]4F)n3)cnc2cn1 [Compound 31, 2-(3-(6-(((3S,4S)-4-fluoropiperidin-3-yl)amino)pyridin-2-yl)imidazo[1,2-a]pyrazin-6-yl)propan-2-ol]
26 pM | FC(F)(F)COc1cn2c(-c3cccc(N[C@@H]4CCNC4)n3)cnc2cn1 [Compound 38, (R)-N-(pyrrolidin-3-yl)-6-(6-(2,2,2-trifluoroethoxy)imidazo[1,2-a]pyrazin-3-yl)pyridin-2-amine]
3 pM | F[C@H]1CNC[C@@H]1Nc1cccc(-c2cnc3cnc(C4CC4)cn23)n1 [Compound 50, 6-(6-cyclopropylimidazo[1,2-a]pyrazin-3-yl)-N-((3S,4S)-4-fluoropyrrolidin-3-yl)pyridin-2-amine]
3 pM | Cn1cc(-c2cn3c(-c4cccc(N[C@H]5CNC[C@@H]5F)n4)cnc3cn2)cn1 [Compound 52, N-((3S,4S)-4-fluoropyrrolidin-3-yl)-6-(6-(1-methyl-1H-pyrazol-4-yl)imidazo[1,2-a]pyrazin-3-yl)pyridin-2-amine]
